Assay results: patent US20050054586A1, “Treatment of ophthalmic disorders” (priority 2003, published 2005)

Experiments:
Format in all cases: in vivo
[1] = tested on: human patients with type-1 diabetes and affected by non-proliferative diabetic retinopathy; test: Clinical study: retinal vascular leakage (fluorescein staining); conditions: one tablet daily, 100 mg cloricromene hydrochloride; start of study versus one-year; 20 patients
Description: (§1) A clinical study was conducted in order to test the safety and efficacy of the compounds for treating ophthalmic disorders. The study included 40 human patients with type-1 diabetes and affected by non-proliferative diabetic retinopathy. Twenty of the patients received one tablet daily containing cloricromene hydrochloride (100 mg), whereas twenty of the patients formed a control group and received no treatment. Patients were randomly assigned either to receive cloricromene or to receive no treatment. The patients included males and females over 45 years of age assessed with type-1 diabetes mellitus and non-proliferative retinopathy assessed by fundus photography and fluoroscein angiography. For patients with bilateral disease, both eyes were evaluated. For patients with unilateral disease, the affected eye served as the study eye. Excluded from the study were subjects: affected with proliferative diabetic retinopathy; having visual acuity less than 2/10; with a history of renal failure; or receiving treatment with anti-coagulants, platelet anti-aggregants, or fibrinolytics.
(§2) The results summarized in the following tables are based on start of study versus one-year study period. Visual acuity was assessed by the patients' use of an eye chart. The presence of hemorrhaging, hard exudates or vascular leakage in the retina was evaluated as a means of grading degree of retinal lesion. Hemorrhaging and hard exudates were assessed primarily by observing the stereoscopic color fundus photographs of the retain. Vascular leakage was assessed primarily by fluorescein staining.

[2] = tested on: human patients with type-1 diabetes and affected by non-proliferative diabetic retinopathy; test: Clinical study: visual acuity assessed by eye chart; conditions: one tablet daily, 100 mg cloricromene hydrochloride; start of study versus one-year; 20 patients
Description: as §1, §2

[3] = tested on: human patients with type-1 diabetes and affected by non-proliferative diabetic retinopathy; test: Clinical study: retinal hemorrhages (stereoscopic color fundus photographs); conditions: one tablet daily, 100 mg cloricromene hydrochloride; start of study versus one-year; 20 patients
Description: as §1, §2

[4] = tested on: human patients with type-1 diabetes and affected by non-proliferative diabetic retinopathy; test: Clinical study: overall progression of retinal damage; conditions: one tablet daily, 100 mg; one-year study period; versus untreated controls
Description: as §1, with “Excluded from the study were subjects: affected with proliferative diabetic retinopathy; having visual acuity less than 2/10; with a history of renal failure; or receiving treatment with anti-coagulants, platelet anti-aggregants, or fibrinolytics.” left out
as §2

[5] = tested on: human patients with type-1 diabetes and affected by non-proliferative diabetic retinopathy; test: Clinical study: hard exudates in the retina (stereoscopic color fundus photographs); conditions: one tablet daily, 100 mg cloricromene hydrochloride; start of study versus one-year; 20 patients
Description: as §1, §2

## CCOC(=O)COc1ccc2c(C)c(CCN(CC)CC)c(=O)oc2c1Cl [Cloricromene, cloricromene]
[1]
  Vascular Leakage: Improved, number of patients (%): 3 (15%)
  Vascular Leakage: Stable, number of patients (%): 16 (80%)
  Vascular Leakage: Worse, number of patients (%): 1 (5%)
[2]
  Visual Acuity: Improved, number of patients (%): 11 (55%)
  Visual Acuity: Stable, number of patients (%): 8 (40%)
  Visual Acuity: Worse, number of patients (%): 1 (5%)
[3]
  Retinal Hemorrhages: Improved, number of patients (%): 13 (65%)
  Retinal Hemorrhages: Stable, number of patients (%): 6 (30%)
  Retinal Hemorrhages: Worse, number of patients (%): 1 (5%)
[4]
  progression of retinal damage in diabetic patients: effective in delaying the progression of retinal damage
[5]
  Hard Exudates: Improved, number of patients (%): 14 (70%)
  Hard Exudates: Stable, number of patients (%): 6 (30%)
  Hard Exudates: Worse, number of patients (%): 0 (0%)
